Data from paper PMC6269873, “Substituted 3-Benzylcoumarins as Allosteric MEK1 Inhibitors: Design, Synthesis and Biological Evaluation as Antiviral Agents” (Molecules, 2013).
Where two headings read alike, the source gives them in different places.

Legend:
phosphorylated MEK1 = phosphorylated MEK1 (Homo sapiens, UniProt Q02750); test: MEK1 binding assay (HTRF, tracer displacement); conditions: for inhibition at 2 µM: read-out: % binding (2 µM); for inhibition at 20 µM: read-out: % binding (20 µM)
In short: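 5 nM GST-tagged phosphorylated MEK1, 2 nM Eu anti-GST antibody and 20 nM kinase tracer 236 incubated with compound 30 min at room temperature in the dark.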

ERK pathway = test: cells; format: cell-based, Human; conditions: for IC50: Homo sapiens, HEK293
Method: The effects of the inhibitors on the activation of ERK pathway were determined in TPA (12-O-tetradecanoylphorbol-13-acetate)-stimulated cells using the AP-1 luciferase reporter gene assay system. Activating protein-1 (AP-1) is the nuclear transcription factor which is a heterodimeric protein downstream of MAPK composed of dimers of the Fos and Jun proteins. The stable AP-1 dimers bind to DNA recognition elements (AP-1 response elements) and mediate transcriptional induction. AP-1 controls a number of cellular events including differentiation, proliferation and apoptosis. Simultaneously, the expression of AP-1 can be regulated in response to different extracellular stimuli, such as cytokines, growth factors, stress, and bacterial and viral infections. ERK pathway is the most important mediator which is closely related to these responses. Activation of ERK pathway causes induction of fos gene, and then the product heterodimerizes with the Jun protein to form the AP-1 dimers. These newly formed heterodimers can enhance the expression of c-jun through AP-1 binding sites in the c-jun promoter. TPA can increase levels of AP-1 proteins through activation of the ERK pathway.
3.4.2. AP-1 Luciferase Reporter Gene Assay
pAP1-Luc was constructed with pGL3-basic (Promega, Madison, WI. USA) and a fragment including the AP-1 response element (2× TRE) and T7 promoter. HEK 293 cells in 96-well plates were cultured at 5% CO2 at 37 °C in DMEM containing 10% FBS. When the confluence was up to 80%, cells were transinfected with pAP1-Luc using lipofectamine 2000 (Life Technologies, Carlsbad, CA. USA). At 24 h post transinfection, individual compounds with different concentrations (5, 10, 20, 30 μM) were added into cells using three wells for each concentration used. After incubation for 1 h, TPA (50 nM) was added. The cells were harvested after 4 h and luciferase activity was measured by using luciferase assay kit (Promega) with a luminometer.

EV71 [1] = test: microbe, parasite or virus in culture; conditions: for EC50: Enterovirus A, EV71, HEK293
Method: (§1) To further examine the functional effects, we selected EV71 to perform the antiviral analysis. […] CC50 is the median cytotoxic concentration measured with the MTT assay.
(§2) RD cells were cultured in DMEM and up to 70%–80% confluence in 96-well plates. Compounds were added into the culture medium for 1 h prior to virus infection using four wells for each concentration used. The compounds were added at the following concentrations: 1.25, 2.5, 5, 10, 20, 40 μM. Then cells were infected withEV71 (a clinical strain denoted as EV71-BC08, GU475127) at a multiplicity of infection (MOI) of 1. Virus controls (untreated wells of infected cells), cell controls (cells and drugs only, using the same dilution range for each compound as the test wells) were included on the plate. The cytopathic effect (CPE) were examined at every 12 h intervals post-infection by using phase-contrast microscopy. […] The cytotoxicity (CC50) was assayed by the MTT method.

EV71 [2] = test: microbe, parasite or virus in culture; conditions: for EC50: Enterovirus A, EV71, RD
Method: as §1, §2

[3] = system: unphosphorylated human MEK1; parameters: method as in PMID 16199156; conditions: inhibition of activation of unphosphorylated human MEK1; cited from earlier work

phosphorylated MEK1, sequence (Q02750 whole entry): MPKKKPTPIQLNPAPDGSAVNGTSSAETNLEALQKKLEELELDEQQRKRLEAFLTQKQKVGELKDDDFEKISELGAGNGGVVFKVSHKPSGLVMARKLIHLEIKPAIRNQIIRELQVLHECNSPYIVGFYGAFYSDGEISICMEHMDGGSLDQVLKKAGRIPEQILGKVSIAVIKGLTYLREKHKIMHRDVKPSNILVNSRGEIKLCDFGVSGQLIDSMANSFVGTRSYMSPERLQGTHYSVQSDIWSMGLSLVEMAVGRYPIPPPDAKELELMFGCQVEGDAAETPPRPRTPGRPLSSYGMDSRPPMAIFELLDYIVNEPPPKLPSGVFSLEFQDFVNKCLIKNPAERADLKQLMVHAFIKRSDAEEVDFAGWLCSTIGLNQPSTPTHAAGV

| SMILES | IC50 (phosphorylated MEK1; HTRF binding to GST tagged phosphorylated MEK1, read-out: IC50) | inhibition at 2 µM (phosphorylated MEK1) | inhibition at 20 µM (phosphorylated MEK1) | inhibition of ERK pathway activation (in words) (ERK pathway) | IC50 (ERK pathway) | EC50 (EV71 [1]) | EC50 (EV71 [2]) | melting point | IC50 (phosphorylated MEK1) | binding affinity (in words) (phosphorylated MEK1) | TI (CC50/IC50) (EV71 [1]) | TI (CC50/IC50) (EV71 [2]) | IC50 [3] |
| --- | --- | --- | --- | --- | --- | --- | --- | --- | --- | --- | --- | --- | --- |
| CCCc1c(Cc2ccc(F)cc2)c(=O)oc2cc(OC(C)=O)ccc12 [Compound 33, 3-(4-Fluorobenzyl)-2-oxo-4-propyl-2H-chromen-7-yl acetate] | 0.252 µM | 61.4% | 72.2% | more efficiently than U0126 | 11.6 ± 1.2 µM | 12.8 µM | 18.5 µM | 150 to 151 °C |  |  |  |  |  |
| CCc1c(Cc2ccc(F)cc2)c(=O)oc2cc(OC(=O)N(C)C)ccc12 [Compound 18, 4-Ethyl-3-(4-fluorobenzyl)-2-oxo-2H-chromen-7-yl dimethylcarbamate] |  | 98.2% | 99.4% | more efficiently than U0126 | 23.4 ± 1.11 µM | 19.4 µM | 10 µM |  | 0.0546 µM | active | 3.37 | 7.29 |  |
| Cc1c(Cc2ccccc2)c(=O)oc2cc(OC(=O)N(C)C)ccc12 [Compound 13, 3-Benzyl-4-methyl-2-oxo-2H-chromen-7-yl dimethylcarbamate] |  | 75.6% | 95.2% | more efficiently than U0126 | 5.4 ± 1.26 µM | 3.29 µM | 2.5 µM | 130 to 133 °C | 0.223 µM |  | 29.85 | 60.8 |  |
| CCCc1c(Cc2ccc(F)cc2)c(=O)oc2cc(OC(=O)N(C)C)ccc12 [Compound 19, 3-(4-Fluorobenzyl)-2-oxo-4-propyl-2H-chromen-7-yl dimethylcarbamate] |  | 66.2% | 87.6% | more efficiently than U0126 | 4.31 ± 2.14 µM | 4.85 µM | 3.98 µM | 82 to 84 °C | 0.158 µM |  | 65.24 | 190 |  |
| Cc1c(Cc2ccc(F)cc2)c(=O)oc2cc(OC(=O)N(C)C)ccc12 [Compound G8935] |  |  |  |  |  |  |  |  |  |  |  |  | 0.3 µM |
